Values belong to the molecule of their own block, whether it stands above or below them. The source made the active and inactive calls. The rule behind the calls is not given here.
Tests used:
HaCaT [1] = experiment: Induction of apoptosis in human HaCaT cells transfected with shAKT2 assessed as decrease in cleaved caspase 3 level by Western blot analysis; type: functional, cell-based
HaCaT [2] = experiment: Induction of apoptosis in human HaCaT cells assessed as viable cells at 9 uM by flow cytometry analysis (reference value: 79.16%); type: functional; conditions: read-out: Activity
HaCaT [3] = experiment: Induction of apoptosis in human HaCaT cells assessed as early apoptotic cells at 9 uM by flow cytometry analysis (reference value: 0.54%); type: functional
HaCaT [4] = experiment: Induction of apoptosis in human HaCaT cells assessed as late apoptotic cells at 9 uM by flow cytometry analysis (reference value: 17.13%); type: functional
HaCaT [5] = experiment: Induction of apoptosis in human HaCaT cells assessed as necrotic cells at 9 uM by flow cytometry analysis (reference value: 3.17%); type: functional
HaCaT [6] = experiment: Induction of apoptosis in human HaCaT cells transfected with shAKT1 assessed as viable cells at 9 uM by flow cytometry analysis (reference value: 77.12%); type: functional; conditions: read-out: Activity
HaCaT [7] = experiment: Induction of apoptosis in human HaCaT cells transfected with shAKT1 assessed as early apoptotic cells at 9 uM by flow cytometry analysis (reference value: 0.54%); type: functional
HaCaT [8] = experiment: Induction of apoptosis in human HaCaT cells transfected with shAKT1 assessed as late apoptotic cells at 9 uM by flow cytometry analysis (reference value: 18.52%); type: functional
HaCaT [9] = experiment: Induction of apoptosis in human HaCaT cells transfected with shAKT1 assessed as necrotic cells at 9 uM by flow cytometry analysis (reference value: 3.82%); type: functional
HaCaT [10] = experiment: Induction of apoptosis in human HaCaT cells transfected with shAKT2 assessed as viable cells at 9 uM by flow cytometry analysis (reference value: 79.95%); type: functional; conditions: read-out: Activity
HaCaT [11] = experiment: Induction of apoptosis in human HaCaT cells transfected with shAKT2 assessed as early apoptotic cells at 9 uM by flow cytometry analysis (reference value: 0.38%); type: functional
HaCaT [12] = experiment: Induction of apoptosis in human HaCaT cells transfected with shAKT2 assessed as late apoptotic cells at 9 uM by flow cytometry analysis (reference value: 16.77%); type: functional
HaCaT [13] = experiment: Induction of apoptosis in human HaCaT cells transfected with shAKT2 assessed as late apoptotic cells at 9 uM by flow cytometry analysis (reference value: 2.90%); type: functional
HaCaT [14] = experiment: Induction of apoptosis in human HaCaT cells transfected with shAKT3 assessed as viable cells at 9 uM by flow cytometry analysis (reference value: 78.17%); type: functional; conditions: read-out: Activity
HaCaT [15] = experiment: Induction of apoptosis in human HaCaT cells transfected with shAKT3 assessed as early apoptotic cells at 9 uM by flow cytometry analysis (reference value: 0.44%); type: functional
HaCaT [16] = experiment: Induction of apoptosis in human HaCaT cells transfected with shAKT3 assessed as late apoptotic cells at 9 uM by flow cytometry analysis (reference value: 17.55%); type: functional
HaCaT [17] = experiment: Induction of apoptosis in human HaCaT cells transfected with shAKT3 assessed as necrotic cells at 9 uM by flow cytometry analysis (reference value: 3.84%); type: functional
HaCaT [18] = experiment: Antiproliferative activity against human HaCaT cells assessed as inhibition of cell growth incubated for 72 hrs by SRB assay; type: cell-based
U-87 MG = experiment: Antiproliferative activity against human U-87MG cells assessed as inhibition of cell growth incubated for 72 hrs by SRB method; type: functional, cell-based, U-87MG ATCC
U-251 = experiment: Antiproliferative activity against human U251 cells assessed as inhibition of cell growth incubated for 72 hrs by SRB method; type: functional, cell-based; conditions: U-251, 72 h
[19] = Antiproliferative activity against human 95-D cells assessed as inhibition of cell growth incubated for 72 hrs by SRB method; type: functional, cell-based
NCI-H1975 = experiment: Antiproliferative activity against human NCI-H1975 cells assessed as inhibition of cell growth incubated for 72 hrs by SRB method; type: functional, cell-based; conditions: NCI-H1975, 72 h
A549 = experiment: Antiproliferative activity against human A549 cells assessed as inhibition of cell growth incubated for 72 hrs by SRB method; type: functional, cell-based; conditions: A549, 72 h
SMMC-7721 = experiment: Antiproliferative activity against human SMMC-7721 cells assessed as inhibition of cell growth incubated for 72 hrs by SRB method; type: functional, cell-based; conditions: SMMC-7721, 72 h
HepG2 = experiment: Antiproliferative activity against human HepG2 cells assessed as inhibition of cell growth incubated for 72 hrs by SRB method; type: functional, cell-based; conditions: HepG2, 72 h
Bel-7402 = experiment: Antiproliferative activity against human Bel-7402 cells assessed as inhibition of cell growth incubated for 72 hrs by SRB method; type: functional, cell-based; conditions: Bel-7402, 72 h
HT-29 = experiment: Antiproliferative activity against human HT-29 cells assessed as inhibition of cell growth incubated for 72 hrs by SRB method; type: functional, cell-based; conditions: HT-29, 72 h
769-P = experiment: Antiproliferative activity against human 769-P cells assessed as inhibition of cell growth incubated for 72 hrs by SRB method; type: functional, cell-based
786-0 [20] = experiment: Antiproliferative activity against human 786-0 cells assessed as inhibition of cell growth incubated for 72 hrs by SRB method; type: functional, cell-based; conditions: 786-0, 72 h
OS-RC-2 = experiment: Antiproliferative activity against human OS-RC-2 cells assessed as inhibition of cell growth incubated for 72 hrs by SRB method; type: functional, cell-based; conditions: OS-RC-2, 72 h
KHOS/NP [21] = experiment: Antiproliferative activity against human KHOS cells assessed as inhibition of cell growth incubated for 72 hrs by SRB method; type: functional, cell-based
MDA-MB-231 = experiment: Antiproliferative activity against human MDA-MB-231 cells assessed as inhibition of cell growth incubated for 72 hrs by SRB method; type: functional, cell-based; conditions: MDA-MB-231, 72 h
LNCaP = experiment: Antiproliferative activity against human LNCaP cells assessed as inhibition of cell growth incubated for 72 hrs by SRB method; type: functional, cell-based
PC-3 = experiment: Antiproliferative activity against human PC3 cells assessed as inhibition of cell growth incubated for 72 hrs by SRB method; type: functional, cell-based; conditions: PC-3, 72 h
SK-OV-3 = experiment: Antiproliferative activity against human SK-OV-3 cells assessed as inhibition of cell growth incubated for 72 hrs by SRB method; type: functional, cell-based; conditions: SK-OV-3, 72 h
OVCAR-8 = experiment: Antiproliferative activity against human OVCAR-8 cells assessed as inhibition of cell growth incubated for 72 hrs by SRB method; type: functional, cell-based; conditions: OVCAR-8, 72 h
786-0 [22] = experiment: Antitumor activity against human 786-0 cells xenografted in dosed BALB/c nude mouse assessed as tumor growth inhibition at 50 mg/kg, ig administered once daily for 22 days; type: functional; conditions: 786-0, po, 528 h, time 22 day, read-out: TGI
KHOS/NP [23] = experiment: Antitumor activity against human KHOS cells xenografted in dosed BALB/c nude mouse assessed as tumor growth inhibition at 50 mg/kg, ig administered once daily for 22 days; type: functional; conditions: po, 528 h, time 22 day, read-out: TGI
[24] = biological target: RAC-alpha serine/threonine-protein kinase (Homo sapiens, UniProt P31749); experiment: Inhibition of N-terminal GST-tagged human AKT1 (104 to 408 residues) expressed in baculovirus infected Sf21 cells incubated for 1 hr in presence of ATP by mobility shift assay
Chain of RAC-alpha serine/threonine-protein kinase (P31749 whole entry, the tested form may be a part): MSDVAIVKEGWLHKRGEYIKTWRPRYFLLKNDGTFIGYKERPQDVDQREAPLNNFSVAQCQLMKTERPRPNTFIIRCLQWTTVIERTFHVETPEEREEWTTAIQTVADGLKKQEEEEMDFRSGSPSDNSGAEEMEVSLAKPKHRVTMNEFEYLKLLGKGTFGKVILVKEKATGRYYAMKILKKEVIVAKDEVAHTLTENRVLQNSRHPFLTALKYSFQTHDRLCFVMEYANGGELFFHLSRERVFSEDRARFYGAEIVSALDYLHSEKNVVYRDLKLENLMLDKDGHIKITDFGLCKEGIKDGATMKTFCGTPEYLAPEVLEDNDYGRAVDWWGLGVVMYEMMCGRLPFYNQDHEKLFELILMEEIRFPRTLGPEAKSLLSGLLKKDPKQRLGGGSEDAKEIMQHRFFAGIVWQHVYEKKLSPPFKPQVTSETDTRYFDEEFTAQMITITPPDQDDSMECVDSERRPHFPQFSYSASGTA

HGC-27 = experiment: Antiproliferative activity against human HGC-27 cells assessed as inhibition of cell growth incubated for 72 hrs by SRB assay; type: functional, cell-based; conditions: HGC-27, 72 h
786-0 [25] = experiment: Antiproliferative activity against human 786-0 cells assessed as inhibition of cell growth incubated for 72 hrs by SRB assay; type: functional, cell-based; conditions: 786-0, 72 h
KHOS/NP [26] = experiment: Antiproliferative activity against human KHOS cells assessed as inhibition of cell growth incubated for 72 hrs by SRB assay; type: functional, cell-based
hERG (KCNH2) = hERG (KCNH2) (Homo sapiens, UniProt Q12809); experiment: Inhibition of human ERG expressed in HEK293 cells at 3 uM by whole cell patch clamp method relative to control; type: cell-based; conditions: HEK293 cells expressing hERG
Chain of hERG (KCNH2) (Q12809 whole entry): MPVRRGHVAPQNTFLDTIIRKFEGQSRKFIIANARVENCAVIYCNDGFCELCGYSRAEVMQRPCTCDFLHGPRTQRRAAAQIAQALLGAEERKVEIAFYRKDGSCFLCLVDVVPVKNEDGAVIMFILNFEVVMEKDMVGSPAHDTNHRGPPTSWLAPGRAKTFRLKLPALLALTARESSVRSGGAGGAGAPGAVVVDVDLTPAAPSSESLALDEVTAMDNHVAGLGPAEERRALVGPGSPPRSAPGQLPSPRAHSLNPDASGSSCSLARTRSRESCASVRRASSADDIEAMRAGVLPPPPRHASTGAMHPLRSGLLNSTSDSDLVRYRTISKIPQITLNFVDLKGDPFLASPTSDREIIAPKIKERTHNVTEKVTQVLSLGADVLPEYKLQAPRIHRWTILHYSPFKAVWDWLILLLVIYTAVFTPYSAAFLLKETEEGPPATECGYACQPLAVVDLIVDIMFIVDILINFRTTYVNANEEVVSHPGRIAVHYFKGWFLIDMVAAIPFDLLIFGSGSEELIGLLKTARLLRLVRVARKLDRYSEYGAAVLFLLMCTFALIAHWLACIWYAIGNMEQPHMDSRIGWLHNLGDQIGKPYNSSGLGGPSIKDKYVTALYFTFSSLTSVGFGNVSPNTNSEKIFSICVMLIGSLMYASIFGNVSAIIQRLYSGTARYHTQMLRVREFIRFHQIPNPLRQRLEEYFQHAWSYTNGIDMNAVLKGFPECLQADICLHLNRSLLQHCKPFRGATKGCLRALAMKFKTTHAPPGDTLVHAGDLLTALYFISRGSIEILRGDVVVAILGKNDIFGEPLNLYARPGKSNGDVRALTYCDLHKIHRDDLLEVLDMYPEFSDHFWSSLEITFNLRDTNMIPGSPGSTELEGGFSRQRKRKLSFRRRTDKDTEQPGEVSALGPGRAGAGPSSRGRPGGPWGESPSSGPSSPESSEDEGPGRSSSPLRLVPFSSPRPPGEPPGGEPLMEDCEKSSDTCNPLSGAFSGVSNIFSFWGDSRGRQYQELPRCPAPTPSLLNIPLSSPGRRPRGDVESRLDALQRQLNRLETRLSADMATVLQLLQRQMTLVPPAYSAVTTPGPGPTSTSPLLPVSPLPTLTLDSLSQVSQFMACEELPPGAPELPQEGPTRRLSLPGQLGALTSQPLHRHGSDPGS

IC50 (U-87 MG): 50.6 µM
IC50 (U-251): 14.2 µM
IC50 (NCI-H1975): 8.23 µM
IC50 (A549): 23.7 µM
IC50 (SMMC-7721): 84.1 µM
IC50 (HepG2): 6.7 µM
IC50 (Bel-7402): 49.6 µM
IC50 (HT-29): 36.9 µM
IC50 (786-0 [20]): 23.3 µM
IC50 (MDA-MB-231): 60.5 µM
IC50 (LNCaP): 0.46 µM
IC50 (PC-3): 82.6 µM
IC50 (SK-OV-3): 6.32 µM
IC50 (OVCAR-8): 4.48 µM
SMILES: NC1(C(=O)N[C@@H](CCO)c2ccc(Cl)cc2)CCN(c2nc[nH]c3nccc2-3)CC1 [CAPIVASERTIB]
Activity (HaCaT [1]): Active
viability at 9 µM (HaCaT [2]): 44%
Activity (HaCaT [3]): 1.34%
Activity (HaCaT [4]): 47.55%
Activity (HaCaT [5]): 7.13%
viability at 9 µM (HaCaT [6]): 44.7%
Activity (HaCaT [7]): 1.44%
Activity (HaCaT [8]): 47.84%
Activity (HaCaT [9]): 5.98%
viability at 9 µM (HaCaT [10]): 70.3%
Activity (HaCaT [11]): 0.79%
Activity (HaCaT [12]): 25.71%
Activity (HaCaT [13]): 3.15%
viability at 9 µM (HaCaT [14]): 46%
Activity (HaCaT [15]): 1.27%
Activity (HaCaT [16]): 46.52%
Activity (HaCaT [17]): 6.23%
IC50 (HaCaT [18]): 4.2 µM
IC50 [19]: 2.32 µM
IC50 (769-P): 10.8 µM
IC50 (OS-RC-2): 53.4 µM
IC50 (KHOS/NP [21]): 40.4 µM
inhibition in vivo at 50 mg/kg (786-0 [22]): 47.1%
inhibition in vivo at 50 mg/kg (KHOS/NP [23]): 33.9%

IC50 [24]: 0.0353 µM
IC50 (786-0 [25]): 7.81 µM
SMILES: Cn1nccc1-c1cc(F)c(C(=O)N[C@@H]2CNCC[C@H]2c2ccc(F)cc2)cc1F
IC50 (HGC-27): 3.36 µM
IC50 (KHOS/NP [26]): 17.6 µM

IC50 [24]: 0.0957 µM
IC50 (786-0 [25]): 3.56 µM
SMILES: Cn1ncc(Br)c1-c1cc(F)c(C(=O)N[C@@H]2CNCC[C@H]2c2ccc(F)c(F)c2)c(F)c1
IC50 (HGC-27): 2.9 µM
IC50 (KHOS/NP [26]): 5.01 µM

IC50 [24]: 0.0092 µM
IC50 (786-0 [25]): 5.05 µM
SMILES: Cn1nccc1-c1cc(F)c(C(=O)N[C@@H]2CNCC[C@H]2c2ccc(F)c(F)c2)cc1F
IC50 (HGC-27): 1.45 µM
IC50 (KHOS/NP [26]): 18.4 µM
inhibition at 3 µM (hERG (KCNH2)): 27.2%

IC50 [24]: 0.0263 µM
IC50 (786-0 [25]): 7.99 µM
SMILES: Cn1nccc1-c1cc(F)c(C(=O)N[C@@H]2CNCC[C@H]2c2ccc(F)c(F)c2)c(F)c1
IC50 (HGC-27): 4.59 µM
IC50 (KHOS/NP [26]): 15.4 µM

IC50 [24]: 0.0489 µM
SMILES: Cn1ncc(Cl)c1-c1cc(F)c(C(=O)N[C@@H]2CNCC[C@H]2c2ccc(F)c(F)c2)cc1F

IC50 [24]: 0.107 µM
IC50 (786-0 [25]): 25.5 µM
SMILES: Cn1nccc1-c1cc(F)c(C(=O)N[C@@H]2CNCC[C@H]2c2ccc(F)cc2)c(F)c1
IC50 (HGC-27): 7.27 µM
IC50 (KHOS/NP [26]): 29.1 µM

IC50 [24]: 0.0971 µM
IC50 (786-0 [25]): 4.28 µM
SMILES: Cn1ncc(Cl)c1-c1cc(F)c(C(=O)N[C@@H]2CNCC[C@H]2c2ccc(F)c(F)c2)c(F)c1
IC50 (HGC-27): 4.86 µM
IC50 (KHOS/NP [26]): 4.46 µM

IC50 [24]: 0.024 µM
IC50 (786-0 [25]): 4.07 µM
SMILES: Cn1nccc1-c1ccc(C(=O)N[C@@H]2CNCC[C@H]2c2ccc(F)c(F)c2)c(Cl)c1
IC50 (HGC-27): 1.4 µM
IC50 (KHOS/NP [26]): 11.7 µM

IC50 [24]: 0.015 µM
IC50 (786-0 [25]): 3.79 µM
SMILES: Cn1nccc1-c1ccc(C(=O)N[C@@H]2CNCC[C@H]2c2cc(F)cc(F)c2)c(Cl)c1
IC50 (HGC-27): 1.24 µM
IC50 (KHOS/NP [26]): 11.8 µM
